Laboratory results: publication PMC4978154, “Phase I metabolites of mephedrone display biological activity as substrates at monoamine transporters” (British Journal of Pharmacology, 2016)
Read-outs that look alike come from different tables or passages of the source.

Columns and labels:
[1] = system: extracellular 5-HT in rat nucleus accumbens; experiment: Microdialysis in rat nucleus accumbens, dialysate 5-HT; format: in vivo; settings: for increase of dialysate 5-HT above baseline: rat nucleus accumbens
Procedure: In vivo microdialysis procedures were carried out as previously described with minor modifications (Baumann et al., 2012). Briefly, male rats anaesthetized with sodium pentobarbital (60 mg·kg^−1, i.p.) received surgically implanted jugular catheters, and intracerebral guide cannulae aimed at the nucleus accumbens (AP +1.6 mm, ML −1.7 mm relative to bregma; −6.2 mm relative to dura) (Paxinos and Watson, 2007). After a 7–10 day recovery, each rat was placed into a chamber equipped with photobeams for the detection of motor parameters (TruScan, Harvard Apparatus, Holliston, MA, USA) and allowed to acclimatize overnight. Food and water were available ad libitum during the acclimatization period. On the following morning, catheters were attached to PE 50 extension tubes, and 0.5 × 2 mm microdialysis probes (CMA/12, Harvard Apparatus, Holliston, MA, USA) were inserted into the guide cannulae. Ringers' solution (150 mM NaCl, 2.8 mM KCl and 2.0 mM CaCl2) was perfused through the probes at 0.6 μL·min^−1 for 3 h. To commence experiments, dialysate samples ([…]) were collected at 20 min intervals, and drug or saline treatments were given after three baseline samples were obtained. Rats received two sequential i.v. injections of mephedrone or its metabolites, with 1 mg·kg^−1 administered at time zero, followed by 3 mg·kg^−1 60 min later. Saline was administered using the same schedule in a separate group of rats. Dialysate concentrations of dopamine and 5‐HT were quantified using HPLC coupled to electrochemical detection (Baumann et al., 2012). Chromatographic data were exported to an Empower software system (Waters, Inc., Milford, MA, USA) for peak identification, integration and analysis.
Correct probe placements were assessed after the microdialysis experiments. Rats were killed by CO2 narcosis then decapitated. Brains were quickly removed and immersion fixed in 10% paraformaldehyde for 1 week. Subsequently, brains were sectioned on a cryostat, and the location of each probe tip was verified by inspection of photographic images of the brain taken with a digital camera using the macro lens setting.
(§1) Calculations were performed using Microsoft Excel® 2010 (Microsoft Corporation, Redmond, WA, USA) and GRAPHPAD PRISM 5.0. (GraphPad Software Inc., La Jolla, CA, USA). IC50 values for uptake inhibition and EC50 values for release were determined by nonlinear regression fits. Release data expressed as AUC were analysed by one‐way ANOVA followed by Bonferroni's multiple comparison test. Microdialysis and locomotor data were analysed by two‐way ANOVA (drug treatment × time) followed by Bonferroni's test. The effect of monensin treatment on basal efflux of tritiated substrate was analysed with the Mann–Whitney test. P values less than 0.05 (i.e. P < 0.05) were considered significant. The data and statistical analysis comply with the recommendations on experimental design and analysis in pharmacology (Curtis et al., 2015).

hNET = molecular target: T1, hNET (Homo sapiens, UniProt P23975); experiment: Transporter uptake inhibition in HEK293 cells expressing hNET; format: cell-based; settings: [3H]-MPP+ uptake; for IC50: mean (95% confidence interval)
T1 construct: expressed in transfected cells
T1 sequence (P23975 whole entry): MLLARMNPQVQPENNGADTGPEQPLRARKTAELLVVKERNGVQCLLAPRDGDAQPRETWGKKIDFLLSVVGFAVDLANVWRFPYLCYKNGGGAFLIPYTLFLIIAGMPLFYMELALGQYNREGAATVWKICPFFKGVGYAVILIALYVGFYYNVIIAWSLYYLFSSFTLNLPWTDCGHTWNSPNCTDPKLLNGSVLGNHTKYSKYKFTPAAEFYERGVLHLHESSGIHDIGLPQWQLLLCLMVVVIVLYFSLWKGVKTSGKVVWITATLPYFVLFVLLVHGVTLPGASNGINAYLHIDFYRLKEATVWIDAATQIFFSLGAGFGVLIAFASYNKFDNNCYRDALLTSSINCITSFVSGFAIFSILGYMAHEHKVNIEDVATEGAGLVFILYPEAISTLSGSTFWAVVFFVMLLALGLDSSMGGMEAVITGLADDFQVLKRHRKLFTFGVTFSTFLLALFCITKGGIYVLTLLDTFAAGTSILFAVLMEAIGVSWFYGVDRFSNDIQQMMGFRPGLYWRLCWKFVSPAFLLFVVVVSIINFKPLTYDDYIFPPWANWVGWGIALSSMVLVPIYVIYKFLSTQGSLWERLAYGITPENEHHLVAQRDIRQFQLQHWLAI
Procedure: (§2) The generation of HEK293 cells stably expressing the human isoforms of DAT (hDAT) and NET (hNET) was carried out as described previously (Scholze et al., 2002). For SERT, the human isoform (hSERT) was cloned in frame with yellow fluorescent protein (Schmid et al., 2001). The generation of a stable cell line was performed as described by Hilber and colleagues (Hilber et al., 2005). HEK293 cells were maintained in humidified atmosphere (5% CO2, 37°C) in DMEM, supplemented with 10% heat‐inactivated FBS and penicillin (100 u 100 mL^−1) and streptomycin (100 μg 100 mL^−1). Selection pressure was maintained by adding geneticin (50 μg·mL^−1) to the cell culture media.
(§3) Uptake experiments were conducted as described previously (Sitte et al., 2001) with minor modifications. In brief, HEK293 cells expressing hDAT, hNET or hSERT were seeded into poly‐D‐lysine (PDL) coated 96‐well plates at a density of 40 000 cells per well. The next day, DMEM was aspirated and replaced with Krebs HEPES buffer (KHB, 25 mM HEPES, 120 mM NaCl, 5 mM KCl, 1.2 mM CaCl2, and 1.2 mM MgSO4, 5 mM D‐glucose, pH adjusted to 7.3 with NaOH) (200 μL per well), and cells were pre‐incubated with various concentrations of mephedrone or its metabolites for 5 min (50 μL per well). Subsequently, 0.1 μM of [^3H]‐5‐HT or 0.02 μM of [^3H]‐MPP^+ were added, and uptake was terminated after 1 (hSERT) or 3 min (hDAT, hNET) by washing the cells with 200 μL of ice‐cold KHB. Cells were lysed with 1% SDS, and tritium uptake was determined by scintillation counting. Nonspecific uptake was determined in the presence of 10 μM paroxetine (hSERT) or 10 μM mazindol (hDAT and hNET).
as §1, with “GRAPHPAD” left out

hDAT = molecular target: T2, hDAT (Homo sapiens, UniProt Q01959); experiment: Transporter uptake inhibition in HEK293 cells expressing hDAT; format: cell-based; settings: [3H]-MPP+ uptake; for IC50: mean (95% confidence interval)
T2 construct: expressed in transfected cells
T2 sequence (Q01959 whole entry): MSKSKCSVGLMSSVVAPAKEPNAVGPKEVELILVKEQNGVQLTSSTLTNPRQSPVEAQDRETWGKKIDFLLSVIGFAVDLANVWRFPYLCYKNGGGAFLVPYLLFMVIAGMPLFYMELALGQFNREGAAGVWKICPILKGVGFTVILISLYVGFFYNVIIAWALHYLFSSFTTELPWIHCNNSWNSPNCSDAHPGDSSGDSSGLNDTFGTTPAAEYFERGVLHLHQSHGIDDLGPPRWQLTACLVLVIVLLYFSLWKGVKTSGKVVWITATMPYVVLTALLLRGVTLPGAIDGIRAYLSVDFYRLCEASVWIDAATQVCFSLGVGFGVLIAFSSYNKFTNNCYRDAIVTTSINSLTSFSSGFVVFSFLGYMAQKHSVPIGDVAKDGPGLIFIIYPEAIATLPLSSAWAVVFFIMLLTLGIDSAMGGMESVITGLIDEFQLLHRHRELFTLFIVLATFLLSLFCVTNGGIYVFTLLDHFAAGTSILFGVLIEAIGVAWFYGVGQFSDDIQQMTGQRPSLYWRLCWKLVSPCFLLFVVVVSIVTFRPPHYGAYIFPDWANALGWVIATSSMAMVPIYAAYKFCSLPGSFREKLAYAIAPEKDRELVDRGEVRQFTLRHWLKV
Procedure: as §2, §3, §1

[2] = 3 mg·kg−1 i.v. (60 min after 1 mg·kg−1)
[3] = IC50 on uptake mediated by hNET
[4] = IC50 on uptake mediated by hDAT

Cc1ccc(C(=O)C(C)N)cc1.Cl (centres unmarked) [Nor‐mephedrone, 2‐amino‐1‐(p‐tolyl)propan‐1‐one hydrochloride]
increase of dialysate 5-HT above baseline ([1]; 1 mg·kg−1 i.v.): 15 fold
increase of dialysate 5-HT above baseline [1, 2]: 25 fold
IC50 (hNET; [3]): 5.46 µM
efficacy of uptake inhibition at hNET (hNET): fully efficacious inhibitors of uptake
IC50 (hDAT; [4]): 6.35 µM
efficacy of uptake inhibition at hDAT (hDAT): fully efficacious inhibitors of uptake

CNC(C)C(=O)c1ccc(C)cc1.Cl (centres unmarked) [Mephedrone, 2‐Methylamino‐1‐(p‐tolyl)propan‐1‐one hydrochloride]
increase of dialysate 5-HT above baseline ([1]; 1 mg·kg−1 i.v.): 15 fold
increase of dialysate 5-HT above baseline [1, 2]: 25 fold
IC50 (hNET; [3]): 2.77 µM
efficacy of uptake inhibition at hNET (hNET): fully efficacious inhibitors of uptake
IC50 (hDAT; [4]): 0.77 µM
efficacy of uptake inhibition at hDAT (hDAT): fully efficacious inhibitors of uptake

CNC(C)C(=O)c1ccc(CO)cc1.Cl (centres unmarked) [4‐OH‐mephedrone, 1‐(4‐(hydroxymethyl)phenyl)‐2‐(methylamino)propan‐1‐one hydrochloride]
effect on extracellular neurotransmitters in the brain (5-HT) ([1]; systemic administration, 1 and 3 mg·kg−1 i.v., rat): no significant effect
efficacy of uptake inhibition at hNET (hNET): fully efficacious inhibitors of uptake
IC50 (hNET; read-out: IC50 on uptake mediated by hNET): 4.85 µM
efficacy of uptake inhibition at hDAT (hDAT): fully efficacious inhibitors of uptake
IC50 (hDAT; read-out: IC50 on uptake mediated by hDAT): 2.92 µM
